Active and inactive are the calls of the source. The calls are words filed in the database; no cut-off is given here.
Assays:
BaF3 = experiment: Antiproliferative activity against mouse BaF3 cells expressing BTK C481S mutant assessed as inhibition of cell growth measured after 3 days by CCK-8 assay; format: functional, cell-based; conditions: BaF3, 72 h
JeKo-1 = experiment: Antiproliferative activity against human JeKo-1 cells assessed as inhibition of cell growth measured after 3 days by CCK-8 assay; format: functional, cell-based; conditions: JeKo-1, 72 h
[1] = target: T1, Protein cereblon/Tyrosine-protein kinase BTK (Homo sapiens, UniProt Q06187+Q96SW2); experiment: PROTAC activity at CRBN/BTK in human JeKo-1 cells assessed as induction of BTK degradation at 100 nM incubated for 24 hrs by Western blotting analysis relative to control; format: cell-based
Target sequence in this assay (Q06187 2-659 limits assumed): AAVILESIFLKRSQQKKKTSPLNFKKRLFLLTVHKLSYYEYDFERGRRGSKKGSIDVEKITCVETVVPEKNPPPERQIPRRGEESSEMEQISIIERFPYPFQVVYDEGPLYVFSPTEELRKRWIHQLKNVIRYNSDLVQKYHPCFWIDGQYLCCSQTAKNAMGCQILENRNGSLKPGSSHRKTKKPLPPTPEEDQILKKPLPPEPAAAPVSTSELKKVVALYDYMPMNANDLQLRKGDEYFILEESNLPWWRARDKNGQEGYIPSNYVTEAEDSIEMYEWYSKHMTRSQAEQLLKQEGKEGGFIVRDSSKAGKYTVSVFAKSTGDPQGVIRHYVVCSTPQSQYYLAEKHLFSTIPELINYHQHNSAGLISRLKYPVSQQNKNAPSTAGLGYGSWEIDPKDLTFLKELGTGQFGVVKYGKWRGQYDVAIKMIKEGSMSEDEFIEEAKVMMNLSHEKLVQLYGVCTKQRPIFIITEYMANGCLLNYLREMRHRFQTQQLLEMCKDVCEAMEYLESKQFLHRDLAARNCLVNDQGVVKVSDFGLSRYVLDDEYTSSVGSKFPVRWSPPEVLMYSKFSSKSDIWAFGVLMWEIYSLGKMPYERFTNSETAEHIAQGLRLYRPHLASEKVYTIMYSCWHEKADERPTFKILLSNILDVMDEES
Target sequence in this assay (Q96SW2 whole entry partner): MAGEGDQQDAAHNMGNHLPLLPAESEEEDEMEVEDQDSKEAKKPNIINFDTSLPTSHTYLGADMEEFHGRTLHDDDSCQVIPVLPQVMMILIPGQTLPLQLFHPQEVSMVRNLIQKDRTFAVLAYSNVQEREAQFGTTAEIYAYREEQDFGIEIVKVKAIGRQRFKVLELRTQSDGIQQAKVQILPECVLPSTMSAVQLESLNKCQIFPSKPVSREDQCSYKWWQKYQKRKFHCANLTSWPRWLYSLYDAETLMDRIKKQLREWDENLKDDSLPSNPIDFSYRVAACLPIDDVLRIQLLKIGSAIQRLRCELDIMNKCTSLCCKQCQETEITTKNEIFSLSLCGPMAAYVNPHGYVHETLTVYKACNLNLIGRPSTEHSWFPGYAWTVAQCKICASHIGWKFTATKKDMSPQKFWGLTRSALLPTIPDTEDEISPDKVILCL

[2] = target: T1, Protein cereblon/Tyrosine-protein kinase BTK; experiment: PROTAC activity at CRBN/BTK in human JeKo-1 cells assessed as induction of BTK degradation at 1000 nM incubated for 24 hrs by Western blotting analysis relative to control; format: cell-based
Target sequence in this assay (Q06187 2-659 limits assumed): as the sequence (Q06187 2-659 limits assumed) above
Target sequence in this assay (Q96SW2 whole entry partner): as the sequence (Q96SW2 whole entry partner) above

[3] = target: T1, Protein cereblon/Tyrosine-protein kinase BTK; experiment: PROTAC activity at CRBN/BTK in human JeKo-1 cells assessed as induction of BTK degradation incubated for 24 hrs by Western blotting analysis; format: cell-based
Target sequence in this assay (Q06187 whole entry): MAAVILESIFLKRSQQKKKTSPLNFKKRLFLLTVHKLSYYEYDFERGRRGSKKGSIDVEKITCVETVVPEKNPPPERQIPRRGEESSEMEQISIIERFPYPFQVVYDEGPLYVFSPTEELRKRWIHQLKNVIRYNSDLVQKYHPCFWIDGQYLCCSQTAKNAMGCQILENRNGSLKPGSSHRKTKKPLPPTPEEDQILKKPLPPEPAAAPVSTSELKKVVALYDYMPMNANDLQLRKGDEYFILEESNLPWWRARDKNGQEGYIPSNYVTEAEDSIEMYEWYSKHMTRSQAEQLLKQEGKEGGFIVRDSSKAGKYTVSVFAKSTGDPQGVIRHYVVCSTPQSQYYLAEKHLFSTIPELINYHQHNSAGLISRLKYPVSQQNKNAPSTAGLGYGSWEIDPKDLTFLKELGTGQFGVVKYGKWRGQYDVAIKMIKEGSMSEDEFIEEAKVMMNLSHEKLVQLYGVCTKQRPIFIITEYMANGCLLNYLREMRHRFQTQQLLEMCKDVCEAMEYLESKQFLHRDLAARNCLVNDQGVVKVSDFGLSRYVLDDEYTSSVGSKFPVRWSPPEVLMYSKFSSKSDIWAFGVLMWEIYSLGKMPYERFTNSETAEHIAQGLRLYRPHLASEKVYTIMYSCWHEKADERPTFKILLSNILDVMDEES
Target sequence in this assay (Q96SW2 whole entry): as the sequence (Q96SW2 whole entry partner) above

[4] = Metabolic stability in mouse liver microsomes assessed as half life at […] measured upto 60 mins in presence of NADPH by HPLC-MS/MS analysis; format: ADME, Microsome
[5] = target: T1, Protein cereblon/Tyrosine-protein kinase BTK; experiment: PROTAC activity at CRBN/BTK in human JeKo-1 cells assessed as induction of BTK degradation by measuring maximal efficacy at 1.6 to 1000 nM incubated for 24 hrs by Western blotting analysis relative to control; format: cell-based; conditions: dose 1.6-1000 nM
Target sequence in this assay (Q06187 2-659 limits assumed): as the sequence (Q06187 2-659 limits assumed) above
Target sequence in this assay (Q96SW2 whole entry partner): as the sequence (Q96SW2 whole entry partner) above

TMD8 = experiment: Antiproliferative activity against human TMD8 cells assessed as inhibition of cell growth measured after 3 days by CCK-8 assay; format: functional, cell-based; conditions: TMD8, 72 h
[6] = target: T1, Protein cereblon/Tyrosine-protein kinase BTK; experiment: PROTAC activity at CRBN/BTK in human JeKo-1 cells assessed as effect on GSPT1 levels at 1.6 to 1000 nM incubated for 24 hrs by Western blotting analysis; format: cell-based; conditions: dose 1.6-1000 nM
Target sequence in this assay (Q06187 2-659 limits assumed): as the sequence (Q06187 2-659 limits assumed) above
Target sequence in this assay (Q96SW2 whole entry partner): as the sequence (Q96SW2 whole entry partner) above

[7] = target: T1, Protein cereblon/Tyrosine-protein kinase BTK; experiment: PROTAC activity at CRBN/BTK in human JeKo-1 cells assessed as induction of BTK degradation pre-treated with N-((1S,4S)-4-((5-(2-chloro-4-phenoxybenzoyl)-7H-pyrrolo[2,3-d]pyrimidin-4-yl)amino)cyclohexyl)-2-(1-(2-(1-(6-fluoro-2-(1-methyl-2,6-dioxopiperidin-3-yl)-1-oxoisoindolin-5-yl)piperidin-4-yl)ethyl)piperidin-4-yl)acetamide for 2 hrs followed by compound treatment for 12 hrs by Western blotting analysis; format: cell-based
Target sequence in this assay (Q06187 2-659 limits assumed): as the sequence (Q06187 2-659 limits assumed) above
Target sequence in this assay (Q96SW2 whole entry partner): as the sequence (Q96SW2 whole entry partner) above

OCI-Ly10 = experiment: Antiproliferative activity against human OCILY10 cells assessed as inhibition of cell growth measured after 3 days by CCK-8 assay; format: functional, cell-based; conditions: OCI-Ly10, 72 h
[8] = target: T1, Protein cereblon/Tyrosine-protein kinase BTK; experiment: PROTAC activity at CRBN/BTK in human JeKo-1 cells assessed as induction of BTK degradation pre-treated with MG-132 for 2 hrs followed by compound treatment for 12 hrs by Western blotting analysis; format: cell-based
Target sequence in this assay (Q06187 2-659 limits assumed): as the sequence (Q06187 2-659 limits assumed) above
Target sequence in this assay (Q96SW2 whole entry partner): as the sequence (Q96SW2 whole entry partner) above

[9] = Drug concentration in BALB/c mouse plasma at 2 mg/kg, iv measured after 4 hrs by LC-MS/MS analysis; format: ADME, organism-based
[10] = target: T1, Protein cereblon/Tyrosine-protein kinase BTK; experiment: PROTAC activity at CRBN/BTK in human JeKo-1 cells assessed as effect on […] levels at 1.6 to 1000 nM incubated for 24 hrs by Western blotting analysis; format: cell-based; conditions: dose 1.6-1000 nM
[11] = target: T1, Protein cereblon/Tyrosine-protein kinase BTK; experiment: PROTAC activity at CRBN/BTK in human JeKo-1 cells assessed as induction of BTK degradation by measuring maximal efficacy at 1.6 to 5000 nM incubated for 24 hrs by Western blotting analysis relative to control; format: cell-based; conditions: dose 1.6-5000 nM

Work on `O=C(c1ccc(Oc2ccccc2)cc1Cl)c1c[nH]c2ncnc(N[C@@H]3CC[C@@H](CO)OC3)c12` [NEMTABRUTINIB] yielded an IC50 (BaF3) of 0.548 µM and an IC50 (JeKo-1) of 0.0661 µM.
`O=C1CCC(N2C(=O)c3ccc(N4CCC(CN5CCC(CN[C@H]6CC[C@@H](Nc7ncnc8[nH]cc(C(=O)c9ccc(Oc%10ccccc%10)cc9Cl)c78)CC6)CC5)CC4)cc3C2=O)C(=O)N1` (some centres undefined) gave an Activity [1] of 48% and an Activity [2] of 63.5%.
For `O=C1CCC(N2C(=O)c3ccc(N4CCC(CN5CCCC(N[C@H]6CC[C@@H](Nc7ncnc8[nH]cc(C(=O)c9ccc(Oc%10ccccc%10)cc9Cl)c78)CC6)C5)CC4)cc3C2=O)C(=O)N1` (some centres undefined), the Activity [1] was 31.5% and the Activity [2] was 74%.
Work on `O=C1CCC(N2C(=O)c3ccc(N4CC(N5CCC(CN[C@H]6CC[C@@H](Nc7ncnc8[nH]cc(C(=O)c9ccc(Oc%10ccccc%10)cc9Cl)c78)CC6)CC5)C4)cc3C2=O)C(=O)N1` (some centres undefined) yielded an Activity [1] of 30% and an Activity [2] of 21%.
Compound `O=C1CCC(N2C(=O)c3cccc(NCCOCCOCCOCCOCCOCCNC(=O)N[C@H]4CC[C@@H](Nc5ncnc6[nH]cc(C(=O)c7ccc(Oc8ccccc8)cc7Cl)c56)CC4)c3C2=O)C(=O)N1` (some centres undefined) has a DC50 [3] of 0.02 µM, an IC50 (BaF3) of 1.76 µM and a half-life [4] of 1.3 min. For the same compound, the Activity [1] was 86.5%, the Activity [2] was 88.6% and the Emax [5] was 93.8%.
With `O=C1CCC(N2C(=O)c3ccc(N4CCC(CCN5CCC(CN[C@H]6CC[C@@H](Nc7ncnc8[nH]cc(C(=O)c9ccc(Oc%10ccccc%10)cc9Cl)c78)CC6)CC5)CC4)cc3C2=O)C(=O)N1` (some centres undefined) the DC50 [3] was 0.1 µM, the Activity [1] was 76% and the Activity [2] was 69.5%.
In the case of `O=C1CCC(N2C(=O)c3ccc(N4CCC(CN5CC(N[C@H]6CC[C@@H](Nc7ncnc8[nH]cc(C(=O)c9ccc(Oc%10ccccc%10)cc9Cl)c78)CC6)C5)CC4)cc3C2=O)C(=O)N1` (some centres undefined), the Activity [1] is reported as 32% and the Activity [2] is reported as 24%.
With `O=C1CCC(N2C(=O)c3ccc(N4CCC(CN5CCC(CC(=O)N[C@H]6CC[C@@H](Nc7ncnc8[nH]cc(C(=O)c9ccc(Oc%10ccccc%10)cc9Cl)c78)CC6)CC5)CC4)cc3C2=O)C(=O)N1` (some centres undefined) the DC50 [3] was 0.024 µM, the Activity [1] was 79.5% and the Activity [2] was 73.5%.
For `O=C1CCC(N2C(=O)c3ccc(N4CCC(CN5CCC(C(=O)N[C@H]6CC[C@@H](Nc7ncnc8[nH]cc(C(=O)c9ccc(Oc%10ccccc%10)cc9Cl)c78)CC6)CC5)CC4)cc3C2=O)C(=O)N1` (some centres undefined), the Activity [1] was 61% and the Activity [2] was 50%.
In the case of `O=C1CCC(N2Cc3cc(N4CCC(CCN5CCC(CC(=O)N[C@H]6CC[C@@H](Nc7ncnc8[nH]cc(C(=O)c9ccc(Oc%10ccccc%10)cc9Cl)c78)CC6)CC5)CC4)c(F)cc3C2=O)C(=O)N1` (some centres undefined), the DC50 [3] is reported as 0.007 µM, the IC50 (TMD8) is reported as 0.0045 µM and the IC50 (BaF3) is reported as 0.086 µM. For the same compound, the Activity [6] was “inactive”, the half-life [4] was greater than 145 min and the Activity [7] was “inactive”. For the same compound, the Activity [1] was 91%, the IC50 (JeKo-1) was 0.0381 µM and the Activity [2] was 89%. The IC50 (OCI-Ly10) was 0.0023 µM, the Activity [8] was “inactive” and the concentration at 4 h [9] was greater than 10 nM. The Activity [10] was “inactive” and the Emax [5] was 96.5%.
In the case of `O=C1CCC(N2C(=O)c3ccc(N4CCC(N5CCC(CN[C@H]6CC[C@@H](Nc7ncnc8[nH]cc(C(=O)c9ccc(Oc%10ccccc%10)cc9Cl)c78)CC6)CC5)CC4)cc3C2=O)C(=O)N1` (some centres undefined), the Activity [1] is reported as 39% and the Activity [2] is reported as 42.5%.
`C=CC(=O)N1CCC[C@@H](n2nc(-c3ccc(Oc4ccccc4)cc3)c3c(N)ncnc32)C1` [IBRUTINIB] showed an IC50 (TMD8) of 0.0047 µM, an IC50 (BaF3) of 1.55 µM and an IC50 (JeKo-1) of 0.0798 µM. The IC50 (OCI-Ly10) was 0.0045 µM.
In the case of `O=C1CCC(N2Cc3cc(N4CCC(CCN5CCC(CC(=O)N[C@H]6CC[C@@H](Nc7ncnc8[nH]cc(C(=O)c9ccc(Oc%10ccccc%10)cc9Cl)c78)CC6)CC5)CC4)ccc3C2=O)C(=O)N1` (some centres undefined), the DC50 [3] is reported as 0.0101 µM, the IC50 (TMD8) is reported as 0.0155 µM and the half-life [4] is reported as 52 min. It also gave an Activity [1] of 80.4%, an Activity [2] of 86% and an IC50 (OCI-Ly10) of 0.0157 µM. The Emax [5] was 90.1%.
For `O=C1CCC(N2C(=O)c3ccc(N4CCC(CN5CCC(CCN[C@H]6CC[C@@H](Nc7ncnc8[nH]cc(C(=O)c9ccc(Oc%10ccccc%10)cc9Cl)c78)CC6)CC5)CC4)cc3C2=O)C(=O)N1` (some centres undefined), the Activity [1] was 57% and the Activity [2] was 77%.
`O=C1CCC(N2C(=O)c3ccc(N4CCC(F)(CN5CCC(CC(=O)N[C@H]6CC[C@@H](Nc7ncnc8[nH]cc(C(=O)c9ccc(Oc%10ccccc%10)cc9Cl)c78)CC6)CC5)CC4)cc3C2=O)C(=O)N1` (some centres undefined) gave an Activity [1] of 28.5% and an Activity [2] of 26%.
Work on `O=C1CCC(N2C(=O)c3cc(F)c(N4CCC(CCN5CCC(CC(=O)N[C@H]6CC[C@@H](Nc7ncnc8[nH]cc(C(=O)c9ccc(Oc%10ccccc%10)cc9Cl)c78)CC6)CC5)CC4)cc3C2=O)C(=O)N1` (some centres undefined) yielded a DC50 [3] of 0.0093 µM, an IC50 (TMD8) of 0.047 µM and a half-life [4] of 55.4 min. The Activity [1] was 87%, the Emax [11] was 93.6% and the IC50 (JeKo-1) was 0.117 µM. The Activity [2] was 88.5% and the IC50 (OCI-Ly10) was 0.0282 µM.
Work on `O=C1CCC(N2Cc3ccc(N4CCC(CCN5CCC(CC(=O)N[C@H]6CC[C@@H](Nc7ncnc8[nH]cc(C(=O)c9ccc(Oc%10ccccc%10)cc9Cl)c78)CC6)CC5)CC4)cc3C2=O)C(=O)N1` (some centres undefined) yielded a DC50 [3] of 0.0074 µM, an IC50 (TMD8) of 0.0093 µM and a half-life [4] greater than 145 min. It also gave an Activity [1] of 83%, an IC50 (JeKo-1) of 0.0344 µM and an Activity [2] of 87%. The IC50 (OCI-Ly10) was 0.0059 µM and the Emax [5] was 90.6%.
`O=C1CCC(N2C(=O)c3ccc(N4CCC(CN5CCC(N[C@H]6CC[C@@H](Nc7ncnc8[nH]cc(C(=O)c9ccc(Oc%10ccccc%10)cc9Cl)c78)CC6)CC5)CC4)cc3C2=O)C(=O)N1` (some centres undefined) gave an Activity [1] of 51.5% and an Activity [2] of 62%.
With `O=C1CCC(N2C(=O)c3ccc(N4CCC(CC(=O)N5CCC(CN[C@H]6CC[C@@H](Nc7ncnc8[nH]cc(C(=O)c9ccc(Oc%10ccccc%10)cc9Cl)c78)CC6)CC5)CC4)cc3C2=O)C(=O)N1` (some centres undefined) the Activity [1] was 45.5% and the Activity [2] was 57%.
In the case of `O=C1CCC(N2C(=O)c3ccc(N4CCC(CN5CC(CN[C@H]6CC[C@@H](Nc7ncnc8[nH]cc(C(=O)c9ccc(Oc%10ccccc%10)cc9Cl)c78)CC6)C5)CC4)cc3C2=O)C(=O)N1` (some centres undefined), the Activity [1] is reported as 29.5% and the Activity [2] is reported as 38.5%.
Work on `O=C1CCC(N2C(=O)c3ccc(N4CCC(N5CCC(N[C@H]6CC[C@@H](Nc7ncnc8[nH]cc(C(=O)c9ccc(Oc%10ccccc%10)cc9Cl)c78)CC6)CC5)CC4)cc3C2=O)C(=O)N1` (some centres undefined) yielded an Activity [1] of 15% and an Activity [2] of 18.5%.
In the case of `O=C1CCC(N2C(=O)c3ccc(N4CCC(N[C@H]5CC[C@@H](Nc6ncnc7[nH]cc(C(=O)c8ccc(Oc9ccccc9)cc8Cl)c67)CC5)CC4)cc3C2=O)C(=O)N1` (some centres undefined), the Activity [1] is reported as 3% and the Activity [2] is reported as 5%.
Compound `O=C1CCC(N2C(=O)c3ccc(N4CCC(CCN5CCC(CC(=O)N[C@H]6CC[C@@H](Nc7ncnc8[nH]cc(C(=O)c9ccc(Oc%10ccccc%10)cc9Cl)c78)CC6)CC5)CC4)cc3C2=O)C(=O)N1` (some centres undefined) has a DC50 [3] of 0.0088 µM, an IC50 (TMD8) of 0.0821 µM and a half-life [4] of 86 min. The Activity [1] was 85%, the Emax [11] was 94.1% and the IC50 (JeKo-1) was 0.0595 µM. The Activity [2] was 82.5% and the IC50 (OCI-Ly10) was 0.0154 µM.
